Eight molecules from US7517873B2, “Substituted pyrimidodiazepines” (Hoffman-La Roche Inc., priority 2007, dated 2009) can be followed below.

T1 sequence (P53350 whole entry): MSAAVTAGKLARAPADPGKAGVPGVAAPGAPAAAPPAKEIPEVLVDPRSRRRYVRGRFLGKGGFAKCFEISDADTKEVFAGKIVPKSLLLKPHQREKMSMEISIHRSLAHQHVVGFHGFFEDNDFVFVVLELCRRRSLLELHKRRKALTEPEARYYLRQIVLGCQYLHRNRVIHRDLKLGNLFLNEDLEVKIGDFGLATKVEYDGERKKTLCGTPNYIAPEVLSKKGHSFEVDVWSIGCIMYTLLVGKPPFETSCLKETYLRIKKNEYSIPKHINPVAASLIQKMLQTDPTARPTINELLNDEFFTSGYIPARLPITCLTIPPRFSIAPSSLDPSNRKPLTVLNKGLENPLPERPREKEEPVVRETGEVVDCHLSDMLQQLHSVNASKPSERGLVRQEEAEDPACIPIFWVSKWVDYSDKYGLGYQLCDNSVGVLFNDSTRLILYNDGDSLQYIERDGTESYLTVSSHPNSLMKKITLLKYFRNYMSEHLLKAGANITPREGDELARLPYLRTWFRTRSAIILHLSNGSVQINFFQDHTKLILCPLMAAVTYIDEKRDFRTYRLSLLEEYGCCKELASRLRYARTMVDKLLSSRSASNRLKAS

The test has as its target T1, GST-PLK1 (Homo sapiens, UniProt P53350).
T1 construct: Full-length, active GST-PLK1 is purified from Sf9 insect cells; made in house; host or cells: Sf9 insect cells
The test can be described thus: Biochemical Characterization Assay: GST-PLK1 kinase HTRF assay with GST-p53 substrate. Particulars: full-length GST-PLK1, GST-p53 and ATP, 37° C. for 35 minutes, HTRF signal. The procedure, abridged: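 Full-length GST-PLK1 from Sf9 cells (3 ug/mL stock) with full-length E. coli GST-p53 substrate in HEPES pH 7 buffer with MgCl2, TCEP, orthovanadate, BSA and Triton X-100; compound stocks 0.6 nM-4 mM in DMSO. Reaction 35 min at 37 °C, EDTA-stopped; phospho-p53 detected by HTRF (Eu anti-rabbit/APC anti-GST).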
Take `CN1CCC(NC(=O)c2ccc(Nc3ncc4c(n3)N(C3CCCC3)CC(C)(C)C(=O)N4C)cc2)CC1` [I-50, 4-(9-Cyclopentyl-5,7,7-trimethyl-6-oxo-6,7,8,9-tetrahydro-5H-pyrimido[4,5-b][1,4]diazepin-2-ylamino)-N-(1-methyl-piperidin-4-yl)-benzamide]: the IC50 (usually the concentration at which inhibition is half-maximal) was below 500 nM.

Consider `COc1cc(C(=O)NC2CCN(C)CC2)ccc1Nc1ncc2c(n1)N(C1CCCC1)CC1(CC1)C(=O)N2C` [I-54, 4-[(9-Cyclopentyl-6,7,8,9-tetrahydro-5-methyl-6-oxospiro[5H-pyrimido[4,5-b][1,4]diazepine-7,1′-cyclopropan]-2-yl)amino]-3-methoxy-N-(1-methyl-4-piperidinyl)benzamide], for which the 50% inhibitory concentration (IC50) is below 500 nM. The result for `Cc1cc(C(=O)NC2CCN(C)CC2)ccc1Nc1ncc2c(n1)N(C1CCCC1)CC(C)(C)C(=O)N2C` [I-56, 4-(9-Cyclopentyl-5,7,7-trimethyl-6-oxo-6,7,8,9-tetrahydro-5H-pyrimido[4,5-b][1,4]diazepin-2-ylamino)-3-methyl-N-(1-methyl-piperidin-4-yl)-benzamide] reads below 500 nM; that for `Cc1cc(C(=O)NC2CCN(C)CC2)ccc1Nc1ncc2c(n1)N(C1CCCC1)CC1(CC1)C(=O)N2C` [I-61, 4-[(9-Cyclopentyl-6,7,8,9-tetrahydro-5-methyl-6-oxospiro[5H-pyrimido[4,5-b][1,4]diazepine-7,1′-cyclopropan]-2-yl)amino]-3-methyl-N-(1-methyl-4-piperidinyl)benzamide], below 500 nM.

For the molecule `CN1CCC(NC(=O)c2ccc(Nc3ncc4c(n3)N(C3CCCC3)CC3(CC3)C(=O)N4C)cc2)CC1` [I-62, 4-[(9-Cyclopentyl-6,7,8,9-tetrahydro-5-methyl-6-oxospiro[5H-pyrimido[4,5-b][1,4]diazepine-7,1′-cyclopropan]-2-yl)amino]-N-(1-methyl-4-piperidinyl)benzamide], the IC50 was below 500 nM. The same measure for `CN1C(=O)C2(CC2)CN(C2CCCC2)c2nc(Nc3ccc(C(=O)NC4CCOCC4)cc3)ncc21` [I-63, 4-[(9-Cyclopentyl-6,7,8,9-tetrahydro-5-methyl-6-oxospiro[5H-pyrimido[4,5-b][1,4]diazepine-7,1′-cyclopropan]-2-yl)amino]-N-(tetrahydropyran-4-yl)benzamide]: below 500 nM. The same measure for `CN1CCC(NS(=O)(=O)c2ccc(Nc3ncc4c(n3)N(C3CCCC3)CC(C)(C)C(=O)N4C)cc2)CC1` [I-64, 4-(9-Cyclopentyl-5,7,7-trimethyl-6-oxo-6,7,8,9-tetrahydro-5H-pyrimido[4,5-b][1,4]diazepin-2-ylamino)-N-(1-methyl-piperidin-4-yl)-benzenesulfonamide]: 500 to 5000 nM; for `COc1cc(C(=O)NC2CCN(C)CC2)ccc1Nc1ncc2c(n1)N1CCC[C@@H]1CC(=O)N2C` [I-102, (3R)-3-methoxy-4-(6-methyl-5-oxo-2,3,3a,4,5,6-hexahydro-1H-6,8,10,10b-tetraaza-benzo[e]azulen-9-ylamino)-N-(1-methyl-piperidin-4-yl)-benzamide]: below 500 nM.
